Source: US10428151B2, “Treatment of hematologic malignancies with an anti-CXCR4 antibody” (BRISTOL-MYERS SQUIBB COMPANY, priority 2011, dated 2019)
Positions count from the first letter of the chain named. “Also recorded” adds a separate entry of the source.

Legend:
MOLP-8 cells = assay: MOLP-8 MM xenograft in SCID mice; assay type: in vivo; conditions: for efficacy in MOLP8 tumors: lenalidomide 50 mg/kg, bortezomib 0.8 mg/kg, BMS-936564 10 mg/kg/dose
Method: In all the experiments, the mice were injected intraperitoneally on Days 0 and 7 with an IgG4 isotype control and a PBS vehicle control.

[1] = system: Bortezomib-resistant JJN-3R cells; assay: JJN-3R MM xenograft in SCID mice; assay type: in vivo; conditions: lenalidomide 50 mg/kg/dose IP, bortezomib 0.8 mg/kg/dose IV
parental JJN-3 cells = assay: JJN-3 MM xenograft in SCID mice; assay type: in vivo; conditions: bortezomib 0.8 mg/kg/dose IV, lenalidomide 50 mg/kg/dose IP
From the text: 5 million JJN-3 cells/mouse were implanted into SCID mice and the mice were randomized into groups of 8 when the tumor volume reached approximately 77 mm^3.

RPMI-8226 cells = assay: RPMI-8226 MM xenograft in SCID mice; assay type: in vivo
Method: The mice were randomized (n=8) when the tumor volume reached approximately 20 mm^3, dosed on Days 0, 3, 7, 10 and 14 with MDX-1338 (10 mg/kg/dose) alone or in combination with 50 mg/kg lenalidomide or in combination with 0.8 mg/kg bortezomib.

MM.1S cells = assay: MM.1S MM xenograft in SCID mice; assay type: in vivo
OPM-2 cells = assay: OPM-2 MM xenograft in SCID mice
From the text: OPM-2 cells (10 million) were implanted into SCID mice as described.

Ramos cells [2] = assay: Ramos cell proliferation, Cell-Titer-Glo; assay type: cell-based, human; conditions: 72 hours
Method: Ramos cells were suspended at 1×10^5 cells/mL in growth media, incubated with the relevant antibodies, including isotype controls, and other test agents and cultured for 72 hours at 37° C. Cell-Titer-Glo (Promega) was added to wells, mixed, and incubated at room temperature for 10 minutes. The plate was read on a GloMax Luminometer (Promega).

Ramos cells [3] = assay: Apoptosis of Ramos cells, Annexin V-FITC/PI, vs AMD3100; assay type: cell-based, human; conditions: 24 hours, antibody 10 μg/mL, AMD3100 6 μM
Method: Cells were stained with Annexin V-FITC and propidium iodide (A). The percent of cells positive for Annexin V only or both Annexin V and PI double positive was determined (B).
Cells were stained with Annexin V-FITC and propidium iodide (PI).

CXCR4 [4] = biological target: T1, CXCR4 (Homo sapiens, UniProt P61073); assay: Competition with FITC-labeled F9 for binding to CEM cells; conditions: 300 nM to 5 pM
T1 sequence (P61073 whole entry): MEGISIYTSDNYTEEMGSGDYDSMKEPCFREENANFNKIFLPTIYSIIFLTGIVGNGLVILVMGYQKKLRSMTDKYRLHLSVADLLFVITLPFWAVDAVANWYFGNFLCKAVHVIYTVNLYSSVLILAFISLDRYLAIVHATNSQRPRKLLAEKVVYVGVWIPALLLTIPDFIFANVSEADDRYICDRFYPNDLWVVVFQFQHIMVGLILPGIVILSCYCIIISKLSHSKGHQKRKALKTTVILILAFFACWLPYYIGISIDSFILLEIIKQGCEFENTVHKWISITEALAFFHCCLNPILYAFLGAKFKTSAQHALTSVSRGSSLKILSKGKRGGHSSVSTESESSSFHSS
Method: To determine the ability of a panel of anti-CXCR4 antibodies to compete for binding to CXCR4, competition studies were performed. […] The mixture of antibodies was then added to CEM cells and allowed to bind.

CXCR4 [5] = biological target: T1, CXCR4; assay: 125I-CXCL12 binding competition on CEM cells (first experiment); conditions: 100 pM 125I-CXCL12
Method: A comparison of anti-CXCR4 antibodies on blocking CXCL12 binding to CEM cells was performed by a standard radio-labeled ligand binding assay. The anti-CXCR4 antibodies were serially diluted 1:3 to yield a range of concentrations from 300 nM to 137 pM. […] An irrelevant antibody of the same isotype was used as a negative control.

CXCR4 [6] = biological target: T1, CXCR4; assay: CXCL12-induced calcium flux in CEM cells (Calcium 3 dye); assay type: cell-based; conditions: 50 nM CXCL12α
From the text: As a negative control, an irrelevant antibody of the same isotype was used.

CXCR4 [7] = biological target: T1, CXCR4; assay: CXCL12-induced migration of CEM cells (first experiment); assay type: cell-based; conditions: 5 nM CXCL12α
Method: The anti-CXCR4 antibodies were titrated in a 1:3 serial dilution series resulting in a concentration range from 100 nM to 1 pM and allowed to bind to labeled CEM cells at a density of 10 million cells per ml. As a negative control, an irrelevant antibody of the same isotype was used. Recombinant human CXCL12α (Peprotech) was added at 5 nM at 30 μl per well to the lower chamber of a 96 well Neuroprobe migration plate with 5.7 mm diameter filters per well. Each well contains […]. Labeled CEM cells with and without antibody were loaded onto the filters at a concentration of 0.5 million cells per well in a volume of 50 μl. The migration plate was incubated at 37° C. for 2.5 hours. […] The chemiluminescent signal was recorded on a Fusion instrument.

[8] = system: human umbilical vein endothelial cells (HuVEC); assay: HuVEC capillary tube formation; assay type: cell-based; conditions: HuVEC on MATRIGEL, 18 hours
Method: In this example, the ability of the anti-CXCR4 human antibodies to inhibit capillary tube formation by human umbilical vein endothelial cells (HuVEC) was examined […]® was diluted 1:1 with RPMI and plated onto the wells of a 96 well plate and allowed to polymerize for 30 minutes at 37° C. HuVEC (from Cambrex, cat. # CC-2519) at 80% confluence were trypsinized and resuspended at 1×10^6 cells per ml in RPMI with 0.5% FBS. Antibodies were well mixed with HuVEC at a final concentration of 3 mg/ml and allowed to incubate at room temperature for 30 minutes. An irrelevant antibody of the same isotype or media alone was used as a negative control. As a positive control of inhibition of tube formation, a mouse anti-human αvβ3 (CD51/CD61) antibody (R&D Systems, cat. # MAB3050) was used. HuVEC with or without antibodies were plated onto the […]®-coated wells and incubated at 37° C. for 18 hours.
The HuVEC incubated with media alone or with the isotype-matched control antibody formed capillary tubes resulting in the appearance of connected cells across the plate with 3-5 points of connection or branch points per cell. […] The cells appeared isolated and with few or no branch points.

Ramos tumor cells = assay: Ramos cell proliferation, 3H-thymidine incorporation; assay type: cell-based, human; conditions: 10^−3 to 300 nM; 72 hours
Method: In this example, the ability of the anti-CXCR4 human antibodies to inhibit proliferation of Ramos tumor cells (a human Burkitt's lymphoma cell line) in vitro was examined. […] The cells were incubated with antibody for 72 hours, with ^3H-thymidine being added for the final 24 hours of incubation to allow for monitoring of cell proliferation. Following the incubation, incorporation of ^3H-thymidine by the cells was measured by standard techniques. The results are shown in the graph of FIG. 11A.

Nc1cccc2c1CN(C1CCC(=O)NC1=O)C2=O (stereo not shown) [lenalidomide, reference compound]
tumor growth inhibition (MOLP-8 cells; MOLP8): alone = 35%
efficacy in MOLP8 tumors (MOLP-8 cells): relatively resistant
tumor growth inhibition [1]: Neither lenalidomide nor bortezomib alone inhibited tumor growth
efficacy in inhibiting tumor growth (parental JJN-3 cells): ineffective in inhibiting tumor growth
efficacy in RPMI-8226 model (RPMI-8226 cells; 50 mg/kg): marginal efficacy
mean tumor growth inhibition (MM.1S cells; Day 25, compared to isotype control, MDX-1338 10 mg/kg/dose, lenalidomide 100 mg/kg): 70%
tumor growth inhibition (MM.1S cells; MM.1S): REVLIMID ® = 70%
efficacy in OPM-2 model (OPM-2 cells; lenalidomide 50 mg/kg/dose IP): minimal efficacy

CC[C@@]1(O)C(=O)OCc2c1cc1n(c2=O)Cc2cc3ccccc3nc2-1 [Camptothecin]
inhibition of Ramos cell proliferation (Ramos cells [2]; 10 μM): completely inhibited cell proliferation

c1cc(CN2CCCNCCNCCCNCC2)ccc1CN1CCCNCCNCCCNCC1 [AMD3100, Plerixafor]
inhibition of Ramos cell proliferation (Ramos cells [2]): did not inhibit proliferation
percent of cells Annexin V/PI double positive (Ramos cells [3]): 2.7%
percent of cells positive for Annexin V only (Ramos cells [3]): 2.0%

CC(C)C[C@H](NC(=O)[C@H](Cc1ccccc1)NC(=O)c1cnccn1)B(O)O [bortezomib, reference compound]
efficacy in MOLP8 tumors (MOLP-8 cells): relatively resistant
tumor growth inhibition [1]: Neither lenalidomide nor bortezomib alone inhibited tumor growth
efficacy in inhibiting tumor growth (parental JJN-3 cells): marginal efficacy
mean tumor growth inhibition (RPMI-8226 cells; Day 44, compared to isotype control, MDX-1338 10 mg/kg, lenalidomide 50 mg/kg, bortezomib 0.8 mg/kg): 70%
median tumor growth inhibition (OPM-2 cells; Day 24, compared to vehicle control, MDX-1338 10 mg/kg/dose IP, bortezomib 0.8 mg/kg/dose IV): 75%

B1: E2: human anti-CXCR4 monoclonal antibody; VH SEQ ID NO: 28, VL SEQ ID NO: 32 (antibody, listed as Homo sapiens, V domains shown)
VH: EVQLVQSGGGLVQPGGSLRLSCAAAGFTFSSYSMNWVRQAPGKGLEWVSYISSRSRTIYYADSVKGRFTISRDNAKNSLYLQMNSLRDEDTAVYYCARDYGGQPPYHYYYGMDVWGQGTTVTVSS
VL: EIVLTQSPSSLSASVGDRVTITCRASQGISNWLAWYQQKPEKAPKSLIYAASSLQSGVPSRFSGSGSGTDFTLTISSLQPEDFATYYCQQYNSYPRTFGQGTKVEIK
ability to compete with F9 for binding to CEM cells (CXCR4 [4]): able to compete with F9; also recorded: partial inhibition at high concentrations
blockade of CXCL12 binding to CXCR4 (CXCR4 [5]): did not effectively block CXCL12 binding
inhibition of CXCL12α-induced calcium flux (CXCR4 [6]): did not significantly inhibit
inhibition of CXCL12α-induced migration (CXCR4 [7]): did not significantly inhibit migration
inhibition of capillary tube formation [8]: did not inhibit capillary tube formation
inhibition of Ramos cell proliferation (3H-thymidine incorporation) (Ramos tumor cells): able to inhibit Ramos cell proliferation

B2: D1: human anti-CXCR4 monoclonal antibody; VH SEQ ID NO: 27, VL SEQ ID NO: 31 (antibody, listed as Homo sapiens, V domains shown)
VH: B1 VH with R56K, K76R, H107Y
VL: B1 VL with E1V, V3W, L4V, A25T, N31S, K45E, S46L
ability to compete with F9 for binding to CEM cells (CXCR4 [4]): able to compete with F9
inhibition of CXCL12α-induced migration (CXCR4 [7]): did not significantly inhibit migration
